In PubChem BioAssay (NCI):
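Compound exposure: 48 hours, 5 concentrations, 96-well plates. The concentration for 50% growth inhibition is given as GI50. TGI denotes the concentration required for complete inhibition of growth.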

Key:
Test in all cases: inhibition of tumour cell growth, NCI panel, 48 h
M19-MEL melanoma = tested on: M19-MEL melanoma
IGROV1 ovarian = tested on: IGROV1 ovarian
OVCAR-3 ovarian = tested on: OVCAR-3 ovarian
SN12C renal = tested on: SN12C renal
OVCAR-5 ovarian = tested on: OVCAR-5 ovarian
NCI-H522 lung = tested on: NCI-H522 lung
HOP-18 NSCLC = tested on: HOP-18 NSCLC

In the case of `[CH3][Sn]([CH3])([CH3])[S]C(=S)N1CCOCC1`, the GI50 (M19-MEL melanoma) is reported as 0.73 µM, the TGI (M19-MEL melanoma) is reported as 31.7 µM and the GI50 (IGROV1 ovarian) is reported as 0.69 µM. It also gave a TGI (IGROV1 ovarian) of 8.52 µM, a GI50 (OVCAR-3 ovarian) of 0.331 µM and a TGI (OVCAR-3 ovarian) of 1.32 µM. The GI50 (SN12C renal) was 7.55 µM, the TGI (SN12C renal) was > 100 µM and the GI50 (OVCAR-5 ovarian) was 2.5 µM. For the same compound, the TGI (OVCAR-5 ovarian) was > 28.2 µM, the GI50 (NCI-H522 lung) was 0.102 µM and the TGI (NCI-H522 lung) was 0.42 µM. The GI50 (HOP-18 NSCLC) was 3.85 µM and the TGI (HOP-18 NSCLC) was > 100 µM.
